{"source": "the supplement of paper PMC4723716", "test_system": "Plasmodium falciparum NF54 gametocytes", "conditions": "384, incubation time: 72 h", "protocol": "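Known antimalarials and MMV control compounds in dose response against each stage (I–V) […] The fitted EC50 is reported as IC50 in µM; '>' marks the top dose reached without a curve.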", "key": {"[1]": {"conditions": "gametocyte stage: Stage I Dose Response IC50 (µM), assay protocol: TSSA"}, "[2]": {"conditions": "gametocyte stage: Stage II Dose Response IC50 (µM), assay protocol: TSSA"}, "[3]": {"conditions": "gametocyte stage: Stage III Dose Response IC50 (µM), assay protocol: TSSA"}, "[4]": {"conditions": "gametocyte stage: Stage IV Dose Response IC50 (µM), assay protocol: TSSA"}, "[5]": {"conditions": "gametocyte stage: Stage V Dose Response IC50 (µM), assay protocol: TSSA"}, "[6]": {"conditions": "gametocyte stage: Stage I Dose Response IC50 (µM), assay protocol: SaLSSA"}, "[7]": {"conditions": "gametocyte stage: Stage II Dose Response IC50 (µM), assay protocol: SaLSSA"}, "[8]": {"conditions": "gametocyte stage: Stage III Dose Response IC50 (µM), assay protocol: SaLSSA"}, "[9]": {"conditions": "gametocyte stage: Stage IV Dose Response IC50 (µM), assay protocol: SaLSSA"}, "[10]": {"conditions": "gametocyte stage: Stage V Dose Response IC50 (µM), assay protocol: SaLSSA"}}}
{"smiles": "CC(C)(N)CNC(=O)CC1CCC2(CC1)OOC1(O2)C2CC3CC(C2)CC1C3", "note": "(stereo not given)", "values": [{"measurement": "IC50 of gametocyte viability", "setting": "[1]", "result": 0.00821, "unit": "µM"}, {"measurement": "IC50 of gametocyte viability", "setting": "[2]", "result": 0.00599, "unit": "µM"}, {"measurement": "IC50 of gametocyte viability", "setting": "[3]", "result": 0.00837, "unit": "µM"}, {"measurement": "IC50 of gametocyte viability", "setting": "[4]", "result": 0.00742, "unit": "µM"}, {"measurement": "IC50 of gametocyte viability", "setting": "[5]", "result": "> 12.5", "unit": "µM"}]}
{"smiles": "CC(C)(N)CNC(=O)C[C@H]1CC[C@]2(CC1)OOC1(O2)C2CC3CC(C2)CC1C3", "note": "(stereo not given in full)", "values": [{"measurement": "IC50 of gametocyte viability", "setting": "[6]", "result": 0.00769, "unit": "µM"}, {"measurement": "IC50 of gametocyte viability", "setting": "[7]", "result": 0.00395, "unit": "µM"}, {"measurement": "IC50 of gametocyte viability", "setting": "[8]", "result": 0.00158, "unit": "µM"}, {"measurement": "IC50 of gametocyte viability", "setting": "[9]", "result": 0.00787, "unit": "µM"}, {"measurement": "IC50 of gametocyte viability", "setting": "[10]", "result": "> 12.5", "unit": "µM"}]}
{"smiles": "OC(c1cc(C(F)(F)F)nc2c(C(F)(F)F)cccc12)C1CCCCN1", "note": "(racemic) [Mefloquine (Racemic)]", "values": [{"measurement": "IC50 of gametocyte viability", "setting": "[1]", "result": 0.0569, "unit": "µM"}, {"measurement": "IC50 of gametocyte viability", "setting": "[2]", "result": 0.117, "unit": "µM"}, {"measurement": "IC50 of gametocyte viability", "setting": "[3]", "result": 0.127, "unit": "µM"}, {"measurement": "IC50 of gametocyte viability", "setting": "[4]", "result": 2.08, "unit": "µM"}, {"measurement": "IC50 of gametocyte viability", "setting": "[5]", "result": 5.77, "unit": "µM"}]}
{"smiles": "O[C@@H](c1cc(C(F)(F)F)nc2c(C(F)(F)F)cccc12)[C@H]1CCCCN1", "note": "(racemic) [Mefloquine (Racemic)]", "values": [{"measurement": "IC50 of gametocyte viability", "setting": "[6]", "result": 0.0441, "unit": "µM"}, {"measurement": "IC50 of gametocyte viability", "setting": "[7]", "result": 0.052, "unit": "µM"}, {"measurement": "IC50 of gametocyte viability", "setting": "[8]", "result": 0.143, "unit": "µM"}, {"measurement": "IC50 of gametocyte viability", "setting": "[9]", "result": 0.818, "unit": "µM"}, {"measurement": "IC50 of gametocyte viability", "setting": "[10]", "result": 0.132, "unit": "µM"}]}
{"smiles": "CCN(CC)CCCNc1ccnc2cc(Cl)ccc12", "note": "[AQ-13]", "values": [{"measurement": "IC50 of gametocyte viability", "setting": "[6]", "result": 0.0426, "unit": "µM"}, {"measurement": "IC50 of gametocyte viability", "setting": "[7]", "result": 0.0335, "unit": "µM"}, {"measurement": "IC50 of gametocyte viability", "setting": "[8]", "result": 0.484, "unit": "µM"}, {"measurement": "IC50 of gametocyte viability", "setting": "[9]", "result": 6.47, "unit": "µM"}, {"measurement": "IC50 of gametocyte viability", "setting": "[10]", "result": 6.05, "unit": "µM"}]}
{"smiles": "CCN(CC)Cc1cc(Nc2ccnc3cc(Cl)ccc23)ccc1O", "note": "[Amodiaquine]", "values": [{"measurement": "IC50 of gametocyte viability", "setting": "[6]", "result": 0.0118, "unit": "µM"}, {"measurement": "IC50 of gametocyte viability", "setting": "[1]", "result": 0.0134, "unit": "µM"}, {"measurement": "IC50 of gametocyte viability", "setting": "[7]", "result": 0.00579, "unit": "µM"}, {"measurement": "IC50 of gametocyte viability", "setting": "[2]", "result": 0.0088, "unit": "µM"}, {"measurement": "IC50 of gametocyte viability", "setting": "[8]", "result": 0.0961, "unit": "µM"}, {"measurement": "IC50 of gametocyte viability", "setting": "[3]", "result": 0.107, "unit": "µM"}, {"measurement": "IC50 of gametocyte viability", "setting": "[9]", "result": 2.46, "unit": "µM"}, {"measurement": "IC50 of gametocyte viability", "setting": "[4]", "result": 5.4, "unit": "µM"}, {"measurement": "IC50 of gametocyte viability", "setting": "[10]", "result": 1.78, "unit": "µM"}, {"measurement": "IC50 of gametocyte viability", "setting": "[5]", "result": "> 9.39", "unit": "µM"}]}
{"smiles": "CO[C@H]1O[C@@H]2O[C@@]3(C)CC[C@H]4[C@H](C)CC[C@@H]([C@H]1C)[C@@]24OO3", "note": "[Artemether]", "values": [{"measurement": "IC50 of gametocyte viability", "setting": "[6]", "result": 0.0159, "unit": "µM"}, {"measurement": "IC50 of gametocyte viability", "setting": "[1]", "result": 0.0183, "unit": "µM"}, {"measurement": "IC50 of gametocyte viability", "setting": "[7]", "result": 0.00459, "unit": "µM"}, {"measurement": "IC50 of gametocyte viability", "setting": "[2]", "result": 0.0125, "unit": "µM"}, {"measurement": "IC50 of gametocyte viability", "setting": "[8]", "result": 0.00617, "unit": "µM"}, {"measurement": "IC50 of gametocyte viability", "setting": "[3]", "result": 0.0175, "unit": "µM"}, {"measurement": "IC50 of gametocyte viability", "setting": "[9]", "result": 0.019, "unit": "µM"}, {"measurement": "IC50 of gametocyte viability", "setting": "[4]", "result": 0.0184, "unit": "µM"}, {"measurement": "IC50 of gametocyte viability", "setting": "[10]", "result": "> 12.5", "unit": "µM"}, {"measurement": "IC50 of gametocyte viability", "setting": "[5]", "result": "> 12.5", "unit": "µM"}]}
{"smiles": "C[C@@H]1CC[C@H]2[C@@H](C)C(=O)O[C@@H]3O[C@@]4(C)CC[C@@H]1[C@]32OO4", "note": "[Artemisinin] [listing 1 of 2 here]", "values": [{"measurement": "IC50 of gametocyte viability", "setting": "[6]", "result": 0.0243, "unit": "µM"}, {"measurement": "IC50 of gametocyte viability", "setting": "[7]", "result": 0.0204, "unit": "µM"}, {"measurement": "IC50 of gametocyte viability", "setting": "[8]", "result": 0.0118, "unit": "µM"}, {"measurement": "IC50 of gametocyte viability", "setting": "[9]", "result": 0.0373, "unit": "µM"}, {"measurement": "IC50 of gametocyte viability", "setting": "[10]", "result": "> 12.5", "unit": "µM"}]}
{"smiles": "C[C@@H]1CC[C@H]2[C@@H](C)C(=O)O[C@@H]3O[C@@]4(C)CC[C@@H]1[C@]32OO4", "note": "[Artemisinin] [listing 2 of 2 here]", "values": [{"measurement": "IC50 of gametocyte viability", "setting": "[1]", "result": 0.027, "unit": "µM"}, {"measurement": "IC50 of gametocyte viability", "setting": "[2]", "result": 0.0188, "unit": "µM"}, {"measurement": "IC50 of gametocyte viability", "setting": "[3]", "result": 0.0218, "unit": "µM"}, {"measurement": "IC50 of gametocyte viability", "setting": "[4]", "result": 0.0322, "unit": "µM"}, {"measurement": "IC50 of gametocyte viability", "setting": "[5]", "result": "> 12.5", "unit": "µM"}]}
{"smiles": "C[C@H]1[C@H](N2CCS(=O)(=O)CC2)O[C@@H]2O[C@@]3(C)CC[C@H]4[C@H](C)CC[C@@H]1[C@@]24OO3", "note": "[Artemisone] [listing 1 of 2 here]", "values": [{"measurement": "IC50 of gametocyte viability", "setting": "[6]", "result": 0.00277, "unit": "µM"}, {"measurement": "IC50 of gametocyte viability", "setting": "[7]", "result": 0.00176, "unit": "µM"}, {"measurement": "IC50 of gametocyte viability", "setting": "[8]", "result": 0.00339, "unit": "µM"}, {"measurement": "IC50 of gametocyte viability", "setting": "[9]", "result": 0.00421, "unit": "µM"}, {"measurement": "IC50 of gametocyte viability", "setting": "[10]", "result": "> 12.5", "unit": "µM"}]}
{"smiles": "C[C@H]1[C@H](N2CCS(=O)(=O)CC2)O[C@@H]2O[C@@]3(C)CC[C@H]4[C@H](C)CC[C@@H]1[C@@]24OO3", "note": "[Artemisone] [listing 2 of 2 here]", "values": [{"measurement": "IC50 of gametocyte viability", "setting": "[1]", "result": 0.00264, "unit": "µM"}, {"measurement": "IC50 of gametocyte viability", "setting": "[2]", "result": 0.00244, "unit": "µM"}, {"measurement": "IC50 of gametocyte viability", "setting": "[3]", "result": 0.00605, "unit": "µM"}, {"measurement": "IC50 of gametocyte viability", "setting": "[4]", "result": 0.00548, "unit": "µM"}, {"measurement": "IC50 of gametocyte viability", "setting": "[5]", "result": "> 7.85", "unit": "µM"}]}
{"smiles": "C[C@H]1[C@@H](O)O[C@@H]2O[C@@]3(C)CC[C@H]4[C@H](C)CC[C@@H]1[C@@]24OO3", "note": "[Artenimol (Dihydro artemisinin)] [listing 1 of 2 here]", "values": [{"measurement": "IC50 of gametocyte viability", "setting": "[6]", "result": 0.00579, "unit": "µM"}, {"measurement": "IC50 of gametocyte viability", "setting": "[7]", "result": 0.0027, "unit": "µM"}, {"measurement": "IC50 of gametocyte viability", "setting": "[8]", "result": 0.00674, "unit": "µM"}, {"measurement": "IC50 of gametocyte viability", "setting": "[9]", "result": 0.0207, "unit": "µM"}, {"measurement": "IC50 of gametocyte viability", "setting": "[10]", "result": "> 12.5", "unit": "µM"}]}
{"smiles": "C[C@H]1[C@@H](O)O[C@@H]2O[C@@]3(C)CC[C@H]4[C@H](C)CC[C@@H]1[C@@]24OO3", "note": "[Artenimol (Dihydro artemisinin)] [listing 2 of 2 here]", "values": [{"measurement": "IC50 of gametocyte viability", "setting": "[1]", "result": 0.00685, "unit": "µM"}, {"measurement": "IC50 of gametocyte viability", "setting": "[2]", "result": 0.00766, "unit": "µM"}, {"measurement": "IC50 of gametocyte viability", "setting": "[3]", "result": 0.0152, "unit": "µM"}, {"measurement": "IC50 of gametocyte viability", "setting": "[4]", "result": 0.0403, "unit": "µM"}, {"measurement": "IC50 of gametocyte viability", "setting": "[5]", "result": "> 12.5", "unit": "µM"}]}
